Measurements reported in ChEMBL document CHEMBL3297661, “1-Substituted-5-[(3,5-dinitrobenzyl)sulfanyl]-1H-tetrazoles and their isosteric analogs: A new class of selective antitubercular agents active against drug-susceptible and multidrug-resistant mycobacteria” (Eur J Med Chem, 2014).
≈ marks a conversion by molar mass, not a printed value.

What was measured:
Type in all cases: functional
[1] = tested on: Mycobacterium tuberculosis; assay: Antimycobacterial activity against multidrug-resistant Mycobacterium tuberculosis 234/2005 after 7 days by micromethod
[2] = tested on: Mycobacterium tuberculosis; assay: Antimycobacterial activity against multidrug-resistant Mycobacterium tuberculosis 234/2005 after 14 days by micromethod; conditions: 234/2005, 336 h
[3] = tested on: Mycobacterium tuberculosis; assay: Antimycobacterial activity against multidrug-resistant Mycobacterium tuberculosis 9449/2007 after 7 days by micromethod
[4] = tested on: Mycobacterium tuberculosis; assay: Antimycobacterial activity against multidrug-resistant Mycobacterium tuberculosis 9449/2007 after 14 days by micromethod; conditions: 9449/2007, 336 h
[5] = tested on: Mycobacterium tuberculosis; assay: Antimycobacterial activity against multidrug-resistant Mycobacterium tuberculosis 8666/2010 after 7 days by micromethod
[6] = tested on: Mycobacterium tuberculosis; assay: Antimycobacterial activity against multidrug-resistant Mycobacterium tuberculosis 8666/2010 after 14 days by micromethod; conditions: 8666/2010, 336 h
[7] = tested on: Mycobacterium tuberculosis; assay: Antimycobacterial activity against multidrug-resistant Mycobacterium tuberculosis Praha 1 after 7 days by micromethod
[8] = tested on: Mycobacterium tuberculosis; assay: Antimycobacterial activity against multidrug-resistant Mycobacterium tuberculosis Praha 1 after 14 days by micromethod; conditions: Praha 1, 336 h
[9] = tested on: Mycobacterium tuberculosis; assay: Antimycobacterial activity against multidrug-resistant Mycobacterium tuberculosis Praha 4 after 7 days by micromethod
[10] = tested on: Mycobacterium tuberculosis; assay: Antimycobacterial activity against multidrug-resistant Mycobacterium tuberculosis Praha 4 after 14 days by micromethod; conditions: Praha 4, 336 h
[11] = tested on: Mycobacterium tuberculosis; assay: Antimycobacterial activity against multidrug-resistant Mycobacterium tuberculosis Praha 131 after 7 days by micromethod
[12] = tested on: Mycobacterium tuberculosis; assay: Antimycobacterial activity against multidrug-resistant Mycobacterium tuberculosis Praha 131 after 14 days by micromethod; conditions: Praha 131, 336 h

For `CCCCCCn1nnnc1[Se]Cc1cc([N+](=O)[O-])cc([N+](=O)[O-])c1`, the MIC ([1]; 234/2005, 168 h) was 1 µM (≈ 0.413 µg/mL), the MIC [2] was 0.5 µM (≈ 0.207 µg/mL) and the MIC ([3]; 9449/2007, 168 h) was 1 µM (≈ 0.413 µg/mL). It also gave an MIC [4] of 0.5 µM (≈ 0.207 µg/mL), an MIC ([5]; 8666/2010, 168 h) of 0.5 µM (≈ 0.207 µg/mL) and an MIC [6] of 0.25 µM (≈ 0.103 µg/mL). For the same compound, the MIC ([7]; Praha 1, 168 h) was 1 µM (≈ 0.413 µg/mL), the MIC [8] was 0.5 µM (≈ 0.207 µg/mL) and the MIC ([9]; Praha 4, 168 h) was 1 µM (≈ 0.413 µg/mL). It also gave an MIC [10] of 0.5 µM (≈ 0.207 µg/mL), an MIC ([11]; Praha 131, 168 h) of 1 µM (≈ 0.413 µg/mL) and an MIC [12] of 0.5 µM (≈ 0.207 µg/mL).

For `CO[C@H]1/C=C/O[C@@]2(C)Oc3c(C)c(O)c4c(O)c(c(/C=N/N5CCN(C)CC5)c(O)c4c3C2=O)NC(=O)/C(C)=C\C=C\[C@H](C)[C@H](O)[C@@H](C)[C@@H](O)[C@@H](C)[C@H](OC(C)=O)[C@@H]1C` [RIFAMPIN], the MIC ([1]; 234/2005, 168 h) was 16 µM (≈ 13.2 µg/mL), the MIC ([3]; 9449/2007, 168 h) was 16 µM (≈ 13.2 µg/mL) and the MIC ([5]; 8666/2010, 168 h) was > 8 µM. For the same compound, the MIC ([7]; Praha 1, 168 h) was 1 µM (≈ 0.823 µg/mL), the MIC ([9]; Praha 4, 168 h) was > 8 µM and the MIC ([11]; Praha 131, 168 h) was 2 µM (≈ 1.65 µg/mL).

With `O=[N+]([O-])c1cc(C[Se]c2nnnn2C2CCCCC2)cc([N+](=O)[O-])c1` the MIC ([1]; 234/2005, 168 h) was 1 µM (≈ 0.411 µg/mL), the MIC [2] was 0.5 µM (≈ 0.206 µg/mL) and the MIC ([3]; 9449/2007, 168 h) was 1 µM (≈ 0.411 µg/mL). For the same compound, the MIC [4] was 0.5 µM (≈ 0.206 µg/mL), the MIC ([5]; 8666/2010, 168 h) was 0.5 µM (≈ 0.206 µg/mL) and the MIC [6] was 0.5 µM (≈ 0.206 µg/mL). It also gave an MIC ([7]; Praha 1, 168 h) of 1 µM (≈ 0.411 µg/mL), an MIC [8] of 0.5 µM (≈ 0.206 µg/mL) and an MIC ([9]; Praha 4, 168 h) of 1 µM (≈ 0.411 µg/mL). The MIC [10] was 0.5 µM (≈ 0.206 µg/mL), the MIC ([11]; Praha 131, 168 h) was 1 µM (≈ 0.411 µg/mL) and the MIC [12] was 0.5 µM (≈ 0.206 µg/mL).

With `NCC[C@H](O)C(=O)N[C@@H]1C[C@H](N)[C@@H](O[C@H]2O[C@H](CN)[C@@H](O)[C@H](O)[C@H]2O)[C@H](O)[C@H]1O[C@H]1O[C@H](CO)[C@@H](O)[C@H](N)[C@H]1O` [AMIKACIN] the MIC ([1]; 234/2005, 168 h) was 32 µM (≈ 18.7 µg/mL), the MIC ([3]; 9449/2007, 168 h) was 32 µM (≈ 18.7 µg/mL) and the MIC ([5]; 8666/2010, 168 h) was > 8 µM. The MIC ([7]; Praha 1, 168 h) was 2 µM (≈ 1.17 µg/mL), the MIC ([9]; Praha 4, 168 h) was 0.5 µM (≈ 0.293 µg/mL) and the MIC ([11]; Praha 131, 168 h) was > 32 µM.

For `CC[C@@H](CO)NCCN[C@@H](CC)CO` [ETHAMBUTOL], the MIC ([1]; 234/2005, 168 h) was > 32 µM, the MIC ([3]; 9449/2007, 168 h) was 16 µM (≈ 3.27 µg/mL) and the MIC ([5]; 8666/2010, 168 h) was > 8 µM. It also gave an MIC ([7]; Praha 1, 168 h) of 2 µM (≈ 0.409 µg/mL), an MIC ([9]; Praha 4, 168 h) of 0.5 µM (≈ 0.102 µg/mL) and an MIC ([11]; Praha 131, 168 h) of 0.5 µM (≈ 0.102 µg/mL).

`CN[C@@H]1[C@H](O[C@H]2[C@H](O[C@H]3[C@H](O)[C@@H](O)[C@H](N=C(N)N)[C@@H](O)[C@@H]3N=C(N)N)O[C@@H](C)[C@]2(O)C=O)O[C@@H](CO)[C@H](O)[C@H]1O` [STREPTOMYCIN] showed an MIC ([1]; 234/2005, 168 h) of 32 µM (≈ 18.6 µg/mL), an MIC ([3]; 9449/2007, 168 h) of 64 µM (≈ 37.2 µg/mL) and an MIC ([5]; 8666/2010, 168 h) of 16 µM (≈ 9.31 µg/mL). The MIC ([7]; Praha 1, 168 h) was 0.5 µM (≈ 0.291 µg/mL), the MIC ([9]; Praha 4, 168 h) was 1 µM (≈ 0.582 µg/mL) and the MIC ([11]; Praha 131, 168 h) was 0.5 µM (≈ 0.291 µg/mL).

`CC1COc2c(N3CCN(C)CC3)c(F)cc3c(=O)c(C(=O)O)cn1c23` (stereo unspecified) [OFLOXACIN] was tested, and the MIC ([1]; 234/2005, 168 h) was > 32 µM, the MIC ([3]; 9449/2007, 168 h) was 16 µM (≈ 5.78 µg/mL) and the MIC ([5]; 8666/2010, 168 h) was > 8 µM. For the same compound, the MIC ([7]; Praha 1, 168 h) was > 16 µM, the MIC ([9]; Praha 4, 168 h) was 0.125 µM (≈ 0.0452 µg/mL) and the MIC ([11]; Praha 131, 168 h) was 0.5 µM (≈ 0.181 µg/mL).

With `CC(C)/N=c1\cc2n(-c3ccc(Cl)cc3)c3ccccc3nc-2cc1Nc1ccc(Cl)cc1` [CLOFAZIMINE] the MIC ([1]; 234/2005, 168 h) was 16 µM (≈ 7.57 µg/mL), the MIC ([3]; 9449/2007, 168 h) was 8 µM (≈ 3.79 µg/mL) and the MIC ([5]; 8666/2010, 168 h) was > 8 µM. The MIC ([7]; Praha 1, 168 h) was 0.25 µM (≈ 0.118 µg/mL), the MIC ([9]; Praha 4, 168 h) was 0.125 µM (≈ 0.0592 µg/mL) and the MIC ([11]; Praha 131, 168 h) was 1 µM (≈ 0.473 µg/mL).

GENTAMICIN was tested, and the MIC [1] was > 32 µM, the MIC [3] was 16 µM and the MIC [5] was > 8 µM. The MIC [7] was 16 µM, the MIC [9] was 2 µM and the MIC [11] was 0.5 µM.

With `COc1ccc(-n2nnnc2[Se]Cc2cc([N+](=O)[O-])cc([N+](=O)[O-])c2)cc1` the MIC ([1]; 234/2005, 168 h) was 1 µM (≈ 0.435 µg/mL), the MIC [2] was 1 µM (≈ 0.435 µg/mL) and the MIC ([3]; 9449/2007, 168 h) was 1 µM (≈ 0.435 µg/mL). For the same compound, the MIC [4] was 1 µM (≈ 0.435 µg/mL), the MIC ([5]; 8666/2010, 168 h) was 0.5 µM (≈ 0.218 µg/mL) and the MIC [6] was 0.5 µM (≈ 0.218 µg/mL). For the same compound, the MIC ([7]; Praha 1, 168 h) was 1 µM (≈ 0.435 µg/mL), the MIC [8] was 0.5 µM (≈ 0.218 µg/mL) and the MIC ([9]; Praha 4, 168 h) was 1 µM (≈ 0.435 µg/mL). It also gave an MIC [10] of 0.5 µM (≈ 0.218 µg/mL), an MIC ([11]; Praha 131, 168 h) of 1 µM (≈ 0.435 µg/mL) and an MIC [12] of 1 µM (≈ 0.435 µg/mL).

For `NNC(=O)c1ccncc1` [ISONIAZID], the MIC ([1]; 234/2005, 168 h) was > 32 µM, the MIC ([3]; 9449/2007, 168 h) was 16 µM (≈ 2.19 µg/mL) and the MIC ([5]; 8666/2010, 168 h) was 32 µM (≈ 4.39 µg/mL). The MIC ([7]; Praha 1, 168 h) was 8 µM (≈ 1.1 µg/mL), the MIC ([9]; Praha 4, 168 h) was 1 µM (≈ 0.137 µg/mL) and the MIC ([11]; Praha 131, 168 h) was 0.25 µM (≈ 0.0343 µg/mL).

`O=[N+]([O-])c1cc(CSc2nnnn2C2CCCCC2)cc([N+](=O)[O-])c1` gave an MIC ([1]; 234/2005, 168 h) of 1 µM (≈ 0.364 µg/mL), an MIC [2] of 0.5 µM (≈ 0.182 µg/mL) and an MIC ([3]; 9449/2007, 168 h) of 1 µM (≈ 0.364 µg/mL). For the same compound, the MIC [4] was 1 µM (≈ 0.364 µg/mL), the MIC ([5]; 8666/2010, 168 h) was 0.5 µM (≈ 0.182 µg/mL) and the MIC [6] was 0.5 µM (≈ 0.182 µg/mL). The MIC ([7]; Praha 1, 168 h) was 1 µM (≈ 0.364 µg/mL), the MIC [8] was 1 µM (≈ 0.364 µg/mL) and the MIC ([9]; Praha 4, 168 h) was 1 µM (≈ 0.364 µg/mL). For the same compound, the MIC [10] was 0.5 µM (≈ 0.182 µg/mL), the MIC ([11]; Praha 131, 168 h) was 1 µM (≈ 0.364 µg/mL) and the MIC [12] was 1 µM (≈ 0.364 µg/mL).
